In assay [1] the test system is intestinal epithelial cell line T84 monolayers incubated with IL-4. The assay is described as follows: Effect of LC-PUFA on IL-4 mediated barrier disruption: TER and 4 kDa FITC-dextran flux. Type of assay: cell-based, human. As to conditions: for protective effect on IL-4 mediated barrier destruction (Flux), time and dose dependent: FIGS. 2A and 2B, 10 μM and 100 μM, 4 kD dextran flux; for IL-4 Flux / IL-4 TER: fatty acid 100 μM, 48 hr pre-incubation then 48 hr co-incubation with IL-4 2 ng/ml. How it is done: (§1) Monolayers (MC) of intestinal epithelial cell lines T84 (American Type Culture Collection (ATTC), Manassas, USA) were cultured on transwell filters (Corning, Costar BV, The Netherlands) allowing both mucosal and serosal sampling and stimulation of human intestinal epithelial cells. Two weeks post confluency the monolayers were incubated in the luminal compartment with polyunsaturated fatty acids ARA (arachidonic acid; 5,8,11,14-eicosatetraenoic acid), DHA (cis-4,7,10,13,16,19 docosahexaenoic acid), EPA (eicosapentaenoic acid) or control palmitic (C 16:0) acid (Palm) (Sigma, St. Louis, USA). The latter procedure was chosen to mimic the in vivo administration route of the dietary compounds. Cells were incubated with ARA, DHA, EPA, or palmitic acid for 0, 24, 48 and 72 hr at different concentrations (10 μM and 100 μM). Experiments were performed to evaluate basal barrier integrity. The epithelial barrier function was determined by measuring the transepithelial resistance (TER, Ω·cm^2) was measured by epithelial volt-ohm meter (EVOM; World Precision Instruments, Germany) and permeability for 4 kD FITC dextran (paracellular permeability marker, Sigma, USA). Resistance (Epithelial permeability for 4 kDa FITC-dextran was determined as follows. Prior to dextran fluxes the medium was refreshed with culture medium without phenol red for one hour followed by addition of 5 μl (stock 100 mg/ml) 4 kDa FITC-dextran to the lumenal compartment. After 30 min incubation 100 μl sample was collected from the serosal compartment and the fluorescent signal measured at excitation wavelength 485 nm and emission 520 nm (FLUOstar Galaxy®, BMG Labtechnologies, USA). FITC-dextran fluxes were calculated as pmol FITC-dextran/cm^2/h. Statistical analyses were performed using the ANOVA (SPSS version 10).
Monolayers (MC) of intestinal epithelial cell lines T84 (ATCC, USA) were cultured on transwell filters (Corning, Costar BV, The Netherlands) allowing both mucosal and serosal sampling and stimulation of human intestinal epithelial cells. Two weeks post confluency the monolayers were incubated in the presence of IL-4 (2 ng/ml, serosal compartment, Sigma, USA) with or without polyunsaturated fatty acids ARA, DHA, GLA, EPA, or control palmitic acid (10 μM or 100 μM, mucosal compartment, Sigma, St. Louis, USA). Cells were pre-incubated with ARA, DHA, EPA, or palmitic acid for 48 hr prior to the IL-4 incubation. The co-incubation of PUFA's and palmetic acid with IL-4 was continued for another 48 hr; while culture medium and additives were changed every 24 hr. The epithelial barrier function was determined by measuring the transepithelial resistance (TER) and permeability as described in example 1. Statistical evaluation was performed as described in example 1.

The subject of assay [2] is intestinal epithelial cell line T84 monolayers. Nature of the assay: Effect of LC-PUFA on basal (spontaneous) barrier integrity: TER and 4 kDa FITC-dextran flux. It is filed as cell-based, human. Conditions: for basal barrier integrity (TER), time and dose dependent effect: FIGS. 1A and 1B, 10 μM and 100 μM; for Flux / Resistance (TER): fatty acid 100 μM, 72 hr incubation, spontaneous barrier integrity; for Flux: 4 kDa FITC-dextran. As for the experimental part: as §1

The subject of assay [3] is MUC-2 expression in intestinal epithelial T84 cells. Conditions: FIG. 4, 24 h, 0.025-4.0 mM, compared to propionate and butyrate.

Consider `CCCCC/C=C\C/C=C\C/C=C\C/C=C\CCCC(=O)O` [ARA, 5,8,11,14-eicosatetraenoic acid], for which, in assay [1], the “protective effect on IL-4 mediated barrier destruction (Flux), time and dose dependent” value (“protective effect” below) was “decreased 4 kD dextran flux”; the “IL-4 Flux” value is on record as 218 pmol FITC-dextran/cm^2/h; the “IL-4 TER” value is 636 Ω·cm^2. Moreover, in assay [2], the “basal barrier integrity (TER), time and dose dependent effect” value (shortened to “basal barrier integrity (TER)”) is listed as “increased resistance”; the Flux is 28 pmol FITC-dextran/cm^2/h; the “Resistance (TER)” value was 1816 Ω·cm^2.

On to `CCC=CCC=CCC=CCC=CCC=CC/C=C\CCC(=O)O` [DHA, cis-4,7,10,13,16,19 docosahexaenoic acid], for which, in assay [1], the “protective effect” value was “decreased 4 kD dextran flux”; the “IL-4 Flux” value is 271 pmol FITC-dextran/cm^2/h; the “IL-4 TER” value is recorded as 547 Ω·cm^2. Besides, in assay [2], the “basal barrier integrity (TER)” value is reported as “increased resistance”; the Flux is reported as 72 pmol FITC-dextran/cm^2/h; the “Resistance (TER)” value is recorded as 1574 Ω·cm^2.

As for `CC/C=C\C/C=C\C/C=C\C/C=C\C/C=C\CCCC(=O)O` [EPA, eicosapentaenoic acid], in assay [1], the “IL-4 Flux” value came out at 228 pmol FITC-dextran/cm^2/h and the “IL-4 TER” value is 539 Ω·cm^2. Also, in assay [2], the Flux is listed as 65 pmol FITC-dextran/cm^2/h and the “Resistance (TER)” value is 1493 Ω·cm^2.

Turning to `CCCCC/C=C\C/C=C\C/C=C\CCCCC(=O)O` [GLA], in assay [1], the “protective effect” value was “decreased 4 kD dextran flux”. In addition, in assay [2], the “basal barrier integrity (TER)” value is recorded as “increased resistance”.

For the compound `CCCCCCCCCCCCCCCC(=O)O` [Palmitic acid, palmitic (C 16:0) acid, reference compound], in assay [1], the “IL-4 Flux” value turned out to be 777 pmol FITC-dextran/cm^2/h and the “IL-4 TER” value is 321 Ω·cm^2. In assay [2], the Flux came out at 161 pmol FITC-dextran/cm^2/h and the “Resistance (TER)” value is listed as 831 Ω·cm^2.

Take `CC(=O)O` [acetate]: the “MUC-2 expression (mucus production)” value in assay [3] is “more potent in stimulating MUC-2 expression”.

Source of the values: patent US10499676B2, “Intestinal barrier integrity” (N.V. Nutricia, priority 2004, dated 2019).
